Consider nine molecules from US9074014B2 (Ipsen Pharma S.A.S., priority 2008, dated 2015).

Where a SMILES comes first, the peptide text is derived from it. Where no end group is shown, it is not given here. [ ]: non-standard residue; d: D form. The star is where a group is joined. Ac6c = NC1(C(=O)O)CCCCC1; Nle = CCCC[C@H](N)C(=O)O; X1 = CCCN1C(=O)CC(*)C1=O; Ac5c = NC1(C(=O)O)CCCC1; Aib = CC(C)(N)C(=O)O

Data set [1] is described as follows: Rat plasma half-life assay. As to conditions: rat plasma, 37° C., LC-MS; read-out: Rat Plasma T½ (converted). It counts as in vitro ADME. How it is done: (§1) B. Human and Rat Plasma Half-Life Assay
(§2) 50 μL was removed at various times, like at 0, 1, 2, 3, 4, 8, 24, 32, 48, 56, 72 hours, mixed with 5 μL formic acid and 150 μL acetonitrile in a microcentrifuge tube, vertexed, and centrifuged for 10 minutes at 10K rpm. The supernatant was transferred to an injection vial and analyzed by LC-MS. The LC-MS system consisted of an API4000 mass spectrometer with an ESI probe. Positive ion mode and full scan detection were used. HPLC separation was carried out on a Luna 3μ C8 (2), 2×30 mm column with a gradient from 90% A to 90% B in 10 minutes at a flow rate of 0.3 ml/min. Buffer A was 1% formic acid in water and buffer B was 1% formic acid acetonitrile.

Data set [2] in a line: Human plasma half-life assay. Type of data set: in vitro ADME. Particulars: human plasma, 37° C., LC-MS; read-out: Human Plasma T½ (converted). How it is done:
as §1, §2

Turning to `CC[C@H](C)[C@H](NC(=O)[C@H](CCCCN)NC(=O)[C@H](CC(=O)O)NC(=O)[C@H](CCSC)NC(=O)[C@H](C)NC(=O)[C@@H](NC(=O)C(C)(C)NC(=O)[C@H](Cc1ccc(O)cc1)NC(=O)[C@H](CC(=O)O)NC(=O)[C@H](CO)NC(=O)[C@@H](NC(=O)[C@H](Cc1ccccc1)NC(=O)[C@@H](NC(=O)CNC(=O)[C@H](CCC(=O)O)NC(=O)C(C)(C)NC(=O)[C@@H](N)Cc1ccc(O)cc1)[C@@H](C)O)[C@@H](C)CC)[C@@H](C)CC)C(=O)N[C@@H](Cc1c[nH]cn1)C(=O)N[C@@H](CCC(N)=O)C(=O)N[C@@H](CCC(N)=O)C(=O)N[C@@H](CC(=O)O)C(=O)N[C@@H](Cc1ccccc1)C(=O)N[C@H](C(=O)N[C@@H](CC(N)=O)C(=O)N[C@@H](Cc1c[nH]c2ccccc12)C(=O)N[C@@H](CC(C)C)C(=O)N[C@@H](CC(C)C)C(=O)N[C@@H](C)C(=O)N[C@@H](CCC(N)=O)C(=O)N[C@@H](CCCCN)C(N)=O)C(C)C` [Example 19, (Aib^2, 11)hGIP(1-30)-NH2] (H-Y[Aib]EGTFISDY[Aib]IAMDKIHQQDFVNWLLAQK-NH2; N-terminus assumed), the half-life at 0.1 mg/ml is greater than 48 h in data set [1] and 27.2 h in data set [2].

For the molecule “Y[Aib]EGTF[Ac6c]SDYSIA[Nle]DKIHQQDFVNWLLAQKGKKNDWKHN[Ac6c]TQ-OH [Example 28, (Aib^2, A6c^7, 40, Nle^14)hGIP(1-42)-OH]”, the half-life at 0.1 mg/ml in data set [1] was 11.6 h; in data set [2] it was greater than 48 h.

Consider “Y[Aib]EGTF[Ac5c]SDYSIAMDKIHQQDFVNWLLAQKGKKNDWKHNITQ-OH [Example 6, (Aib^2, A5c^7)hGIP(1-42)-OH]”, for which the half-life at 0.1 mg/ml in data set [1] was 8.6 h; in data set [2] it was greater than 48 h.

As to “Y[Aib]EGTFIS[Aib]YSIAMDKIHQQDFVNWLLAQKGKKNDWKHNITQ-OH [Example 2, (Aib^2, 9)hGIP(1-42)-OH]”, the figures for the half-life at 0.1 mg/ml in data set [1] and in data set [2] were 5.6 h and 9.4 h, respectively.

Turning to “YAPGTFISDYSI[Aib]MDKIHQQDFVNWLLAQKGKKNDWKHNITQ [Example 75, (Pro^3, Aib^13)hGIP(1-42)-OH]”, the results for the half-life at 0.1 mg/ml in data set [1] and in data set [2] were 1.9 h and 26.1 h, respectively.

Consider “Y[Aib]EGTF[Ac6c]SDYSIA[Nle]DKIHQQDFVNWLLAQKGKKNDWKHNI[Ac6c]Q-OH [Example 29, (Aib^2, A6c^7, 41, Nle^14)hGIP(1-42)-OH]”, for which the half-life at 0.1 mg/ml in data set [1] was 7.3 h; in data set [2] it was greater than 48 h.

For the molecule “YGEGTFISDY[Ac5c]IAMDKIHQQDFVNWLLAQKGKKNDWKHNITQH-OH [Example 117, (Gly^2, A5c^11, His^43)hGIP(1-43)-OH]”, the half-life at 0.1 mg/ml was 10.5 h in data set [1] and 25.2 h in data set [2].

Consider “Y[Aib]EGTF[Ac6c]SDYSIAMDKIHQQDFVNWLLAQKC(X1)KKNDWKHNITQ-OH [Example 90, [Aib^2, A6c^7, Cys(Psu)^31]hGIP(1-42)-OH]”, for which the half-life at 0.1 mg/ml was 4.8 h in data set [1] and 11.3 h in data set [2].

Turning to “Y[Aib]EGTF[Ac6c]SDYSIAMDKIHQQDFVNWLLAQKGKKNDWKHC(X1)ITQ-OH [Example 79, [Aib^2, A6c^7, Cys(Psu)^39]hGIP(1-42)-OH]”, the half-life at 0.1 mg/ml in data set [1] was 14.3 h.
